Paper PMC10363510 (Plant Communications, 2023)

Test system: SiAT1
Assay: HPLC product assay, Michaelis-Menten fit
Assay type: biochemical, Sesamum indicum
Settings: read-out: apparent Km; 75 mM salidroside, 50 mM Tris-HCl pH 7.4, 30°C

| Km | SMILES |
| --- | --- |
| 1.13 ± 0.42 µM | CC(C)(COP(=O)(O)OP(=O)(O)OC[C@H]1O[C@@H](n2cnc3c(N)ncnc32)[C@H](O)[C@@H]1OP(=O)(O)O)[C@@H](O)C(=O)NCCC(=O)NCCSC(=O)/C=C/c1ccc(O)c(O)c1 [caffeoyl-CoA] |
| 1.66 ± 0.39 µM | CC(C)(COP(=O)(O)OP(=O)(O)OC[C@H]1O[C@@H](n2cnc3c(N)ncnc32)[C@H](O)[C@@H]1OP(=O)(O)O)[C@@H](O)C(=O)NCCC(=O)NCCSC(=O)/C=C/c1ccc(O)cc1 [p-coumaroyl-CoA] |
